Laboratory results: article PMC3673938, “Two Distinct Calmodulin Binding Sites in the Third Intracellular Loop and Carboxyl Tail of Angiotensin II (AT1A) Receptor” (PLoS ONE, 2013)
Where no end group is shown, it is not given here.

Tests used:
[1] = test system: purified bovine brain CaM; experiment: GST-fusion protein pull-down with purified bovine brain CaM; assay type: binding; conditions: for interaction with purified CaM (pull-down, in words) / relative binding efficiency for CaM: 50 pmol GST-fusion protein; for interaction with purified CaM (pull-down, in words): 50 pmol purified bovine CaM, 100 mM Tris-HCl pH 7.5, Ca2+ dependent (0.1 mM CaCl2 vs 1 mM EGTA), repeated five times; for relative binding efficiency for CaM: purified bovine brain CaM, 100 mM Tris-HCl pH 7.5, 0.1 mM CaCl2, immunoblot density ratio, 5 independent experiments; for relative binding efficiency for CaM versus wild type (in words): GST pull-down with fixed concentrations, data not shown
Method: (§1) GST-fusion proteins were expressed in E. coli BL21 strain cells, and purified by affinity chromatography using immobilized glutathione sepharose 4B beads. Proteins were eluted by reduced glutathione in 50 mM Tris-HCl buffer (pH 8.0), and then concentrated with Centricon filters with 3 kDa MW cut-off. The eluted proteins were either used immediately or stored at −80°C for future use. For GST-fusion protein pull-down assays, fusion proteins were incubated with either cell lysates or purified protein(s) at 4°C for 3 hours, following which glutathione-sepharose 4B beads were added and incubation continued at 4°C for 1 hour. The beads were then recovered by brief centrifugation, followed by 4 washes with the corresponding incubation buffer. The fusion proteins and the proteins to which they were bound were then separated by SDS-PAGE, and identified by staining with Coomassie blue or by immunoblot.
Figure 1 Interactions of the i3 loop and carboxyl tail of the AT1A receptor with CaM. A, Construction of GST-fusion proteins. Upper panel illustrates a schematic structure of the AT1A receptor and constructs of GST-fusion proteins of the i3 loop and carboxyl tail of the receptor. The numbers represent positions of amino acids in the receptor. The GST-fusion proteins were constructed, expressed in E. coli, purified by using gluthathione-sepharose 4B beads, separated by SDS-PAGE, and stained by Coomassie blue (lower panel). B. Interactions of the i3 loop or carboxyl tail of AT1A receptor with CaM in rat brain lysates (upper panel) and with purified bovine brain CaM (lower panel). 50 pmol of GST-fusion proteins were incubated with 500 µg of rat brain lysates in 250 µl of buffer containing 20 mM Tris-HCl, 70 mM NaCl, pH 7.5 with 1 mM EGTA or 0.1 mM CaCl2. Interacting protein complexes were pulled down by gluthathione-sepharose 4B beads, and visualized by immunoblot with a specific anti-CaM antibody. The same methods were applied to interactions with pure bovine CaM (50 pmol), except that the buffer contained 100 mM Tris-HCl (pH 7.5). These experiments were repeated five times with similar results.
Figure 3 CaM binding sites in the i3 loop and carboxyl tail of the AT1A receptor. A, Schematic representation of constructs of GST-fusion proteins. Four GST-fusion proteins containing truncated peptides in the i3 loop and carboxyl tail of the receptor were constructed, including GST-N-terminus of the i3 loop (GST-ATi3N), GST-C-terminus of the i3 loop (GST-ATi3C), GST-N-terminus of carboxyl tail (GST-ATctN) and GST-C-terminus of carboxyl tail (GST-ATctC). The numbers under the first or the last residues represent amino acid positions in the receptor. B, Interaction of GST-fusion proteins with CaM. The GST-fusion proteins (50 pmol) were incubated with purified bovine CaM (50 pmol) in 250 µl of buffer containing 100 mM Tris-HCl (pH 7.5) with 0.1 mM CaCl2. Proteins were pulled down by gluthathione-sepharose 4B beads, following which immunoblots were probed with a specific anti-CaM antibody. These experiments were repeated five times with similar results.
Figure 5 Effect of point mutations in ATi3N or ATctN on their interactions with CaM. A. Modeled structures of CaM-ATi3(214–231) and CaM-ATct(302–317). The complexes of CaM and CaM binding motif in the i3 loop ATi3(214–231) or the carboxyl terminal tail ATct(302–317) of the receptor were modeled as described in Experimental Procedures. The target peptides are colored in red. […] Calcium atoms are shown as orange spheres. The N- and C- termini of CaM are also labeled. Helices and sheets in CaM are colored in green and yellow, respectively. B. Effect of point mutations at ATi3N or ATctN on their interaction with CaM. […]

[2] = test system: AT1A receptor-CaM interaction; experiment: BRET between AT1A receptor-eYFP and RLuc-CaM / CaM-RLuc in HEK293 cells; assay type: cell-based, Human Embryonic Kidney 293 (HEK293) cells; conditions: 100 nM Ang II at 2, 4 and 6 minutes, compared with no Ang II
Method: We first stably transfected HEK293 cells with the AT1A receptor-eYFP vector by using lipofectamine 2000 solution according to the vendor’s (Invitrogen) instructions. […] The co-transfectants were detached with PBS buffer containing 1 mM EDTA, and distributed into 96 well plates at 10^5 cells/well (OptiPlate 96, Greiner Bio-One. Longwood, FL). Fluorescence measurements were acquired using a Victor2 multilabel plate reader (Perkin Elmer Life Sciences, Shelton, CT). […] The emission of light from YFP was measured both before and after stimulation with 100 nM of Ang II.
48 hours later, the cotransfectants were washed with saline pre-warmed at 37°C and calibrated in saline in a 37°C incubator for 30 minutes. […] Control co-transfectants were treated with equal amounts of saline (vehicle).

G protein βγ subunits = experiment: GST-fusion protein pull-down of G protein βγ subunits, with or without CaM; assay type: binding, bovine; conditions: 2 pmol GST-fusion protein, 2 pmol Gβγ, CaM pre-incubated 30 minutes, 20 mM Tris-HCl, 70 mM NaCl, 0.1 mM CaCl2, pH 7.5; 4 or 5 experiments
Method: as §1
Figure 7 Effect of CaM on G protein βγ subunit interaction with wild ATi3 or ATct. A. Interaction of G protein βγ subunits and ATi3 or ATct. 50 pmol of GST-ATi3(213–242) or GST-ATct(297–359) were incubated with different amounts of G protein Gβγ subunits in a buffer containing 20 mM Tris-HCl and 70 mM NaCl (pH 7.5). Interactions were assessed by GST-fusion protein pull-down assay, and blots were probed with a specific antibody against Gβ subunits (upper panel). 1 pmol of Gβγ subunit was interacted with different amounts of GST-ATi3(213–242) and GST-ATct(297–359). Interaction was assessed by immunoblot against Gβ subunits (lower panel). B. CaM inhibits the interaction between G protein Gβγ subunits and ATi3 or ATct. 2 pmol of GST-ATi3(213–242) or GST-ATct(297–359) were incubated with different concentrations of pure bovine brain CaM for 30 minutes in a buffer (20 mM Tris-HCl and 70 mM NaCl with 0.1 mM CaCl2, pH 7.5) following which 2 pmol of Gβγ subunits were added and incubated for 1 hour. GST-fusion proteins and their interacting proteins were pulled down by gluthathione-sepharose 4B beads, and subjected to immunoblot. Blots were probed with a specific antibody against Gβ subunits. The summary graph represents means ± S.E. from four independent experiments. C. Effects of CaM on the interactions between G protein βγ subunits and mutated ATi3 and ATct. The method is same as the described in the Figure 7B, except that we used mutated GST-fusion proteins, GST-ATi3(213–242)W219A, ATct(297–359)F309A, and ATct(297–359)F313A. The summary graph represents mean ± S.E. from 4 or 5 independent experiments.

CaM in rat brain lysates = experiment: GST-fusion protein pull-down from rat brain lysates; assay type: binding; conditions: 50 pmol GST-fusion protein, 500 µg rat brain lysates, 20 mM Tris-HCl, 70 mM NaCl, pH 7.5; Ca2+ dependent; repeated five times
Method: as §1
Figure 1 Interactions of the i3 loop and carboxyl tail of the AT1A receptor with CaM. A, Construction of GST-fusion proteins. Upper panel illustrates a schematic structure of the AT1A receptor and constructs of GST-fusion proteins of the i3 loop and carboxyl tail of the receptor. The numbers represent positions of amino acids in the receptor. […]

[3] = molecular target: T1, CaM purified from bovine brain (dansyl-CaM) (Bos taurus, UniProt P62157); experiment: Dansyl-CaM fluorescence emission spectrum shift; assay type: binding; conditions: dansyl-CaM 106 nM, 500 nM peptide + 0.1 mM calcium, 1 hour room temperature; shifted from 521 nm (EGTA); three experiments
T1 construct: CaM and G protein βγ subunits purified from bovine brain; purchased Calbiochem (La Jolla, CA); host or cells: bovine brain (tissue-purified)
Method: Dansyl-CaM was synthesized according to a standard method, [46], [47], [48]. 500 µl of CaM purified from bovine brain (2 mg/ml in a buffer containing 20 mM NH4HCO3, pH 7.4 and 1 mM CaCl2) was mixed with 1 µl of dansyl chloride (100 mg/ml in acetone) at 4°C C for 1 hour with agitation. The mixture was then applied to a Centricon 4 concentrator with 10 kDa MW cut-off to remove the unincorporated dye. Efficiencies of dansylation (0.18–0.34 mol of dansyl moiety per mol of CaM) were calculated by measurement of absorption at 320 nm using a molar extinction coefficient of 3400 M-1cm-1. For conformational studies of dansyl-CaM, fluorescence was monitored at room temperature with a SLMAminco model 8000 series 2 spectrometer (Spectronic Instruments, Rochester, NY) at an excitation wavelength of 340 nm, and emission wavelengths from 425 to 600 nm.
Figure 4 CaM binding motifs in the i3 loop and carboxyl terminal tail of the AT1A receptor. A, Alignment of CaM binding motifs. […] Fluorescence emission spectra of dansyl-CaM (106 nM) at an emission wavelength of 425–600 nm were measured in the presence of 10 mM EGTA, 0.1 mM calcium, 500 nM ATi3 (214–231) +0.1 mM calcium, and 500 nM ATct (302–317) +0.1 mM calcium. […] Spectra were corrected for background buffer fluorescence. […]

## ATctC (325–359): GST-C-terminus of carboxyl tail, GST-KSHSSLSTKMSTLSYRPSDNMSSSAKKPASCFEVE ({GST}-KSHSSLSTKMSTLSYRPSDNMSSSAKKPASCFEVE)
[1]
  interaction with purified CaM (pull-down, in words): no interactions with CaM

## ATctN (297–324): GST-N-terminus of carboxyl tail, GST-LNPLFYGFLGKKFKKYFLQLLKYIPPKA ({GST}-LNPLFYGFLGKKFKKYFLQLLKYIPPKA)
[1]
  interaction with purified CaM (pull-down, in words): interact with purified CaM

## ATi3C (235–242): GST-C-terminus of the i3 loop, amino acids 235–242, peptide NDDIFRIT
[1]
  interaction with purified CaM (pull-down, in words): no interactions with CaM

## ATi3N (213–234): GST-N-terminus of the i3 loop, GST-TSYTLIWKALKKAYEIQKNKPR ({GST}-TSYTLIWKALKKAYEIQKNKPR)
[1]
  interaction with purified CaM (pull-down, in words): interact with purified CaM

## Angiotensin II (DRVYIHPF; Angiotensin-2; UniProt P01019 25-32, looked up) [Ang II, AT1A receptor agonist]
[2]
  effect on magnitude of the BRET ratio of the co-transfectants: did not alter

## GST-ATctN(297–324)F309A: F309A mutant of GST-ATctN(297–324) ({GST}-LNPLFYGFLGKKAKKYFLQLLKYIPPKA)
[1]
  relative binding efficiency for CaM: 29 % of wild type

## GST-ATctN(297–324)F313A: F313A mutant of GST-ATctN(297–324) ({GST}-LNPLFYGFLGKKFKKYALQLLKYIPPKA)
[1]
  relative binding efficiency for CaM: 22 % of wild type

## GST-ATctN(297–324)Y312A: Y312A mutant of GST-ATctN(297–324) ({GST}-LNPLFYGFLGKKFKKAFLQLLKYIPPKA)
[1]
  relative binding efficiency for CaM versus wild type (in words): did not have reduced binding efficiencies

## GST-ATi3(W219A): W219A mutant of GST-ATi3(213–242) ({GST}-TSYTLIAKALKKAYEIQKNKPRNDDIFRII)
G protein βγ subunits
  Gβγ binding to GST-fusion protein in the presence of 2 pmol of CaM: 95%
  Gβγ binding to GST-fusion protein in the presence of 10 pmol of CaM: 94%

## GST-ATi3N(213–234)L217A: L217A mutant of GST-ATi3N(213–234) ({GST}-TSYTAIWKALKKAYEIQKNKPR)
[1]
  relative binding efficiency for CaM versus wild type (in words): did not have reduced binding efficiencies

## GST-ATi3N(213–234)Y215A: Y215A mutant of GST-ATi3N(213–234) ({GST}-TSATLIWKALKKAYEIQKNKPR)
[1]
  relative binding efficiency for CaM versus wild type (in words): did not have reduced binding efficiencies

## GSTATi3(213–242): GST fused to the i3 loop of AT1A receptor, GST-TSYTLIWKALKKAYEIQKNKPRNDDIFRII ({GST}-TSYTLIWKALKKAYEIQKNKPRNDDIFRII)
[1]
  interaction with purified CaM (pull-down, in words): associated
CaM in rat brain lysates
  association with CaM from rat brain lysates (pull-down, in words): associated
G protein βγ subunits
  Gβγ binding to GST-fusion protein in the presence of 2 pmol of CaM: 77%
  Gβγ binding to GST-fusion protein in the presence of 10 pmol of CaM: 60%

## GSTATi3N(213–234)W219A: W219A mutant of GST-ATi3N(213–234) ({GST}-TSYTLIAKALKKAYEIQKNKPR)
[1]
  relative binding efficiency for CaM: 32 % of wild type

## SYTLIWKALKKAYEIQKN [ATi3(214–231)]
[3]
  λmax of dansyl-CaM fluorescence emission spectrum in presence of peptide: 486 nm
